Activity calls are given as the source filed them. No cut-off for these calls is given here.
Tests used:
Nucleic Acid = assay: Binding affinity to supercoiled pRYG plasmid DNA assessed as DNA intercalation at 50 uM after 21 hrs by electrophoresis; assay type: nucleic-acid assay
[1] = Selectivity ratio for IC50 of BRCA2-deficient Chinese hamster V-C8 mutant cells to IC50 of BRCA2-proficient Chinese hamster BAC29 mutant cells; assay type: functional, Cricetulus griseus
[2] = Cytotoxicity against BRCA2-proficient Chinese hamster BAC29 mutant cells after 3 days by WST1 cell viability assay; assay type: functional, cell-based; settings: Cricetulus griseus, WST1, 72 h
[3] = Cytotoxicity against BRCA2-deficient Chinese hamster V-C8 mutant cells after 3 days by WST1 cell viability assay; assay type: functional, cell-based; settings: Cricetulus griseus, WST1, 72 h

For COc1cccc2c1C(=O)c1c(O)c3c(c(O)c1C2=O)C[C@@](O)(C(=O)CO)C[C@@H]3O[C@H]1C[C@H](N)[C@H](O)[C@H](C)O1, the Activity (Nucleic Acid) was “Active”.

For CO[C@@]12[C@H](COC(N)=O)C3=C(C(=O)C(C)=C(N)C3=O)N1C[C@@H]1N[C@@H]12 [MITOMYCIN], the “Ratio IC50” value [1] was 292, the IC50 [2] was 400 nM and the IC50 [3] was 5 nM.

From ChEMBL document CHEMBL1157411, “Marine natural product libraries for high-throughput screening and rapid drug discovery” (J Nat Prod, 2008)
